Here are results for 27 compounds from PubChem BioAssay (NCI).

Test systems include COLO 205 colon; OVCAR-5 ovarian; K-562 leukemia; OVCAR-3 ovarian; CAKI-1 renal; HCT-116 colon; UO-31 renal; HL-60(TB) leukemia.
Holding throughout (experiment): inhibition of tumour cell growth, NCI panel, 48 h

Molecules are shown by their SMILES. Values joined by “and” are separate entries in the source; they are usually repeats but may differ in a detail not shown here. Equal values may be shown once.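 All cell lines were grown in 96-well plates and treated with compound for 48 hours. GI50: concentration for 50% inhibition of growth. TGI: total growth inhibition.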

`COc1ccc(CCc2cc(OC)c(O)c(OC)c2)cc1`: the TGI in the test with COLO 205 colon, with OVCAR-5 ovarian, in the test with K-562 leukemia, in the test on OVCAR-3 ovarian, with CAKI-1 renal and in the test with HCT-116 colon was over 100 µM in each case. Also, in the test with UO-31 renal, the TGI is over 100 µM.
On to `C[Si](C)(C)C(Sc1ccccc1)(Sc1ccccc1)Sc1ccccc1`, for which the TGI in the test on COLO 205 colon, in the test on K-562 leukemia, in the test on HL-60(TB) leukemia, with CAKI-1 renal, in the test with HCT-116 colon and in the test on UO-31 renal was over 100 µM throughout.
Take `CCOC(=O)c1cccnc1C(OC(C)=O)OC(C)=O`: the TGI in the test on COLO 205 colon, in the test with OVCAR-5 ovarian, in the test on K-562 leukemia, in the test with HL-60(TB) leukemia, with OVCAR-3 ovarian and in the test with CAKI-1 renal was over 100 µM throughout. Also, the TGI with HCT-116 colon and in the test with UO-31 renal was over 100 µM throughout.
On to `COC(=O)C(=O)C(C(=O)C(=O)Nc1cc(C)ccc1C)c1nc2ccc(C(=O)c3ccccc3)cc2[nH]c1=O` (stereo not drawn), for which the TGI in the test with COLO 205 colon, with OVCAR-5 ovarian, in the test on K-562 leukemia, in the test on CAKI-1 renal, with HCT-116 colon and in the test on UO-31 renal was over 100 µM each time.
Take `O=c1cc(-c2ccccc2)[nH]c2cc(Cl)ccc12`: the TGI was 2.82 µM with COLO 205 colon; over 100 µM with OVCAR-5 ovarian; 21.2 µM with K-562 leukemia; 0.612 µM with HL-60(TB) leukemia; 11.4 µM with CAKI-1 renal; over 100 µM in the test on HCT-116 colon. In addition, the TGI with UO-31 renal is over 100 µM.
As for `COC(=O)/C(=N\NC(N)=O)C(C(=O)C=C(C)C)C(=O)C(=O)Nc1ccc(Cl)c(Cl)c1` (stereo not drawn), the TGI in the test on COLO 205 colon, with OVCAR-5 ovarian, in the test with K-562 leukemia, in the test on HL-60(TB) leukemia, in the test on OVCAR-3 ovarian and in the test with CAKI-1 renal was over 100 µM in each case. For the same compound, the TGI with HCT-116 colon and in the test with UO-31 renal was over 100 µM in each case.
With `Cc1ccc2nc(NC(=O)/C(=N\NC(=S)NN)C3C(=O)NC(=S)NC3=O)sc2c1`, the TGI in the test on COLO 205 colon, in the test with OVCAR-5 ovarian, in the test on K-562 leukemia, with HL-60(TB) leukemia, with CAKI-1 renal and with HCT-116 colon was over 100 µM throughout. The compound further came in with a TGI in the test with UO-31 renal of over 100 µM.
Regarding `CCOC(=O)C(C(O)c1ccc([N+](=O)[O-])cc1)P(=O)(OCC)OCC` (stereo not drawn), the TGI was over 100 µM with OVCAR-5 ovarian; over 100 µM with K-562 leukemia; 64 µM in the test with HL-60(TB) leukemia; over 100 µM in the test with OVCAR-3 ovarian; over 100 µM in the test with CAKI-1 renal; over 100 µM in the test on HCT-116 colon.
On to `C=C(CCCO)[C@@H]1CC[C@@](C)(O)[C@H]1C`, for which the TGI in the test with COLO 205 colon, with OVCAR-5 ovarian, in the test with K-562 leukemia, in the test on OVCAR-3 ovarian, in the test with CAKI-1 renal and in the test with HCT-116 colon was over 100 µM each time. The TGI in the test with UO-31 renal is over 100 µM.
Take `CCOC(=O)C(=O)Nc1ccccc1C(C)C`: the TGI in the test on COLO 205 colon, in the test on OVCAR-5 ovarian, in the test on K-562 leukemia, with HL-60(TB) leukemia, in the test with OVCAR-3 ovarian and with CAKI-1 renal was over 100 µM throughout. The TGI with HCT-116 colon and in the test on UO-31 renal was over 100 µM in each case.
For `COc1ccc2nc(NC(=O)C(=O)NNC(=O)c3ccncc3)sc2c1`, the TGI with COLO 205 colon, in the test with K-562 leukemia, in the test on HL-60(TB) leukemia, with OVCAR-3 ovarian, in the test on CAKI-1 renal and in the test with HCT-116 colon was over 100 µM in each case. The TGI with UO-31 renal is over 100 µM.
`C/C(=N\NC(=O)CC(=O)N(C(=O)c1ccc(Cl)cc1)c1ccc(C)cc1)c1ccccc1O`: the TGI with COLO 205 colon, in the test on OVCAR-5 ovarian, in the test on K-562 leukemia, with OVCAR-3 ovarian, in the test on CAKI-1 renal and in the test with HCT-116 colon was over 100 µM each time. This compound displayed a TGI in the test with UO-31 renal of over 100 µM.
Turning to `CCN(CC)CCNc1ccc2nc(C)n3c4ccc(O)cc4c(=O)c1c23`, the TGI in the test on OVCAR-5 ovarian was 8.1 µM; in the test on K-562 leukemia it was 13.4 µM; with HL-60(TB) leukemia, 2.78 µM; in the test on OVCAR-3 ovarian it was 17.1 µM; in the test on CAKI-1 renal, 3.6 µM; with HCT-116 colon, 10.3 µM. The compound further gave a TGI in the test with UO-31 renal of 12.1 µM.
Consider `Cc1ccccc1C1CC(c2ccccc2)=NO1` (stereo not drawn), for which the TGI with COLO 205 colon, in the test on OVCAR-5 ovarian, in the test with K-562 leukemia, with HL-60(TB) leukemia, in the test on OVCAR-3 ovarian and in the test on CAKI-1 renal was over 100 µM in each case. The TGI in the test on HCT-116 colon and in the test on UO-31 renal was over 100 µM each time.
For `c1ccc(N/N=C2\NN=C(c3ccccc3)CS2)cc1`, the TGI was 41.8 µM with OVCAR-5 ovarian; 25.8 µM in the test with K-562 leukemia; over 100 µM with HL-60(TB) leukemia; 50.9 µM in the test with OVCAR-3 ovarian; 8.32 µM with CAKI-1 renal; 15.2 µM in the test with HCT-116 colon. The TGI with UO-31 renal worked out at 32.8 µM.
In the case of `C1C[OH+]CC[OH+]CCNCC[OH+]CC[OH+]CCN1.Cl.[Cl-].[Pt+4]`, the GI50 with COLO 205 colon, with K-562 leukemia, with HL-60(TB) leukemia, with CAKI-1 renal, in the test with HCT-116 colon and in the test with UO-31 renal was over 100 µM in each case. For the same compound, the TGI with COLO 205 colon, with K-562 leukemia, with HL-60(TB) leukemia, in the test on CAKI-1 renal, with HCT-116 colon and with UO-31 renal was over 100 µM throughout.
For `CCOC1CC2OC(=O)C1C=C2C(=O)OC` (stereo not drawn), the TGI in the test with COLO 205 colon was 37.2 µM; with OVCAR-5 ovarian, over 100 µM; in the test with K-562 leukemia, 83.3 µM; with HL-60(TB) leukemia, 46.8 µM; in the test with OVCAR-3 ovarian, 75.1 µM; in the test on CAKI-1 renal, 40 µM. In the test with UO-31 renal, the TGI is over 100 µM.
For the compound `CCN(CC)CCn1c2ccccc2c(=O)c2c(OC)ccc(OC)c21`, the TGI in the test on COLO 205 colon, in the test on OVCAR-5 ovarian, with K-562 leukemia, with HL-60(TB) leukemia, in the test on OVCAR-3 ovarian and in the test on CAKI-1 renal was over 100 µM throughout. Also, the TGI in the test on HCT-116 colon and with UO-31 renal was over 100 µM each time.
For `CCOP1(=O)C=C(C)C(=C(Cl)Cl)C(C)=C1` (stereo not drawn), the TGI was 29 µM in the test on COLO 205 colon; 16.3 µM in the test on K-562 leukemia; 10.9 µM in the test with HL-60(TB) leukemia; 64.2 µM with OVCAR-3 ovarian; 49.3 µM in the test with CAKI-1 renal; 7.13 µM and 13.3 µM in the test with HCT-116 colon. Moreover, the TGI in the test on UO-31 renal amounted to 52.9 µM. In the test on HCT-116 colon, the GI50 is 3.33 µM.
As for `CCOCc1cc(=O)c2c(OC)cc3c(c2o1)CCC(C)(C)O3`, the TGI in the test on OVCAR-5 ovarian, in the test with K-562 leukemia, in the test on HL-60(TB) leukemia, with OVCAR-3 ovarian, in the test with HCT-116 colon and with UO-31 renal was over 100 µM each time.
Consider `Cc1ccc(NC(=O)OCC(COc2ccc(Cl)cc2Cl)OC(=O)Nc2ccc(C)cc2)cc1` (stereo not drawn), for which the TGI with COLO 205 colon, in the test on OVCAR-5 ovarian, in the test on OVCAR-3 ovarian, in the test on CAKI-1 renal, in the test with HCT-116 colon and with UO-31 renal was over 100 µM in each case.
For the compound `Cc1cc(Cl)ccc1NC(=O)C(=O)C(C(=O)c1ccccc1)C1OC(=O)c2ccccc21` (stereo not drawn), the TGI in the test on COLO 205 colon, with OVCAR-5 ovarian, with K-562 leukemia, with HL-60(TB) leukemia, in the test on CAKI-1 renal and with HCT-116 colon was over 100 µM in each case. For the same compound, the TGI in the test with UO-31 renal was over 100 µM.
Regarding `Cn1cnc([N+](=O)[O-])c1Sc1nccc(=O)[nH]1`, the TGI with COLO 205 colon, with OVCAR-5 ovarian, in the test on K-562 leukemia, in the test on OVCAR-3 ovarian, in the test with CAKI-1 renal and in the test with HCT-116 colon was over 100 µM in each case. Also, the TGI with UO-31 renal was over 100 µM.
On to `CC1C2CC=CC(=O)[C@@]2(C)CCC12OCCO2` (stereo partly drawn), for which the TGI in the test with OVCAR-5 ovarian, in the test on K-562 leukemia, in the test with OVCAR-3 ovarian, in the test with CAKI-1 renal, in the test on HCT-116 colon and with UO-31 renal was over 100 µM in each case.
As to `CCCCN(CCCC)CCCn1cnc2ncccc2c1=O`, the TGI with COLO 205 colon, in the test with OVCAR-5 ovarian, with K-562 leukemia, in the test with OVCAR-3 ovarian, with CAKI-1 renal and with HCT-116 colon was over 100 µM each time. The compound also displayed a TGI in the test with UO-31 renal of over 100 µM.
For `CC1CC[P+](c2ccccc2)(c2ccccc2)CC1`, the TGI with COLO 205 colon, with OVCAR-5 ovarian, in the test on K-562 leukemia, with HL-60(TB) leukemia, with OVCAR-3 ovarian and with HCT-116 colon was over 100 µM each time. This compound yielded a TGI with UO-31 renal of over 100 µM.
Turning to `COC[C@H](C)N=CN1CCc2ccccc2C1(Cc1ccccc1)Cc1ccccc1`, the TGI in the test on COLO 205 colon was 34.6 µM; in the test on K-562 leukemia, 29.3 µM; in the test on OVCAR-3 ovarian it was 43.8 µM; in the test on CAKI-1 renal, 44.3 µM; in the test with HCT-116 colon, 29.7 µM; in the test with UO-31 renal, 33 µM.
